Experimental data from patent publication US6593335B1, “Potassium channel openers” (Abbott Laboratories, priority 1997, dated 2003).
Where “and” joins values, the source holds several entries; their conditions need not be identical. Identical values can stand only once.

Key:
potassium channels [1] = biological target: potassium channels (Homo sapiens, UniProt O60706); experiment: Functional potassium channel opening activity in isolated human bladder strips (25 mM KCl contracted)
Description: Human bladders were obtained from women greater than 45 years old. The human tissue was obtained from the Anatomic Gift Foundation, Phoenix AZ. Human tissue was received via overnight delivery on wet ice placed into Krebs Ringer bicarbonate solution (composition, mM: NaCl, 120; NaHCO3, 20; dextrose, 11; KCl, 4.7; 20 CaC′2, 2.5; MgSO4, 1.5; KH2PO4, 1.2; K2EDTA, 0.01, equilibrated with 5% C02/95% 02 pH 7.4 at 37 ° C.). Propranolol (0.004 mM) was included in all of the assays to block […]. The trigonal and dome portions were discarded. Strips 3-5 mm wide and 20 mm long were prepared from the remaining tissue cut in a circular fashion. The mucosal layer was removed. For the human detrusor strips the tissues were contracted 25 with 25 mM KCl which produced a steady state tension of approximately 400 centigrams. […]
After a 60 minute rinsing period, a concentration response curve (cumulative) was 30 generated for the test agonist in the same fashion as that used for the control agonist P1075. The maxximal efficacies of the compounds (expressed as % relative to P1075) are reported. […] Agonist potencies were also expressed as an index relative to PI1075. The index was calculated by dividing the ED50 for P1075 by the ED50 for the test agonist in a given tissue. […]

potassium channels [2] = biological target: potassium channels (Sus scrofa, UniProt F1SR11); experiment: Functional potassium channel opening activity in isolated Landrace pig bladder strips (field-stimulated twitch); settings: for Landrace Pig Bladder Index: ED50 for P1075 divided by ED50 for the test agonist, averaged over tissues; for Landrace Pig Bladder pD2: negative logarithm of ED50
In short: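 Landrace pig bladder strips with the mucosa removed were field-stimulated (0.05 Hz, 0.5 ms, 20 V) in Krebs Ringer bicarbonate containing propranolol, and primed with 80 mM KCl. Cumulative concentration-response curves gave maximal efficacy relative to a reference potassium channel opener, pD2, and a potency index (reference ED50/test ED50) averaged across tissues.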

Male CD rats = experiment: In-vivo bladder efficacy protocol (isovolumetric contractions model); design: species or system rat
From the text: The utility of compounds of the inyention for the treatment of urinary incontinence, bladder overactivity and bladder instability is illustrated by the ability of compounds of the inyention to affect bladder contractions in-vivo. The following method is illustrative of the in-vivo bladder efficacy of compounds of the inyention. In-vivo bladder efficacy protocol (isovolumetric contractions model) Male CD rats (400-450 g) were anesthetized with urethane (0.6 gikg ip +0.6 g/kg sc). The left femoral vein was cannulated with polyethylene (PE-50) tubing for test compound administration. […] The bladder was emptied via this catheter and additionally by applying slight manual pressure on the lower abdomen. The urinary catheter was connected using a Y-tube connector to both a pressure transducer and a syringe pump. The urethra was then ligated using 4-0 silk suture and the bladder was slowly filled using a constant infusion of room temperature saline at the rate of 0.1 ml/min until spontaneous rhythmic contractions were evident (1.0 -1.3 ml). […] Then three doses of a test compound were administered cumulatively iv at 20 minute intervals. […] Area under the curve (AUC) of the bladder contractions was determined from the respective waveforms using a Modular Instruments, Inc. computerized data acquisition system and averaged over the last ten minutes of each twenty minute period.

potassium channels [3] = biological target: potassium channels (Cavia porcellus, UniProt A0A286XYR9); experiment: Membrane hyperpolarization (MHP) assay in primary cultured guinea-pig urinary bladder (GPB) cells, DiBAC(4)3 FLIPR; type: cell-based; settings: for MHP in GPB Cells Maximal Response (% P1075): maximal steady-state hyperpolarization relative to reference P1075 (assigned as 100%); for EC50: concentration that elicits 50% of the maximal response for the test sample
Description: Determination of Potassium Channel Opening Activity Membrane Hyperpolarization Assays Compounds were evaluated for potassium channel opening activity using the rat thoracic aorta smooth muscle AI 0 cell line or primary cultured guinea-pig urinary bladder (GPB) cells. The AI0 cell line was purchased from the American Type Culture Collection (Rockville, MD; Cat # 30-2002). […] Louis, MO) and 0.2 mg/mL ronase (Calbiochem, La Jolla, CA) with continuous stirring in a cell incubator for 30 minutes. The mixture was then centrifuged at 1300 x g for 5 minutes, and the pellet resuspended in Dulbecco's PBS (GIBCO, Gaithersburg, MD) and recentrifuged to remove residual enzyme. […] Cells were confirmed to be of smooth muscle type by cytoskeletal staining using a monoclonal mouse anti human-a-smooth muscle actin (Biomeda, Foster City, CA). Functional activity at potassium channels was measured by evaluating changes in membrane potential using the bis-oxonol dye DiBAC(4)3 (Molecular Probes) in a 96-well cell-based kinetic assay system, Fluorescent Imaging Plate Reader (FLIPR) (K.S. Schroeder et al., J. Biomed. Screen., v. I pp. 75-81 (1996)). DiBAC(4)3 is an anionic potentiometric probe which partitions between cells and extracellular solution in a membrane potential-dependent manner. With increasing membrane potential (for example, K+depolarization), the probe further partitions into the cell; this is measured as an increase in fluorescence due to dye interaction with intracellular lipids and proteins. Conyersely, decreasing membrane potential (hyperpolarization by potassium channel openers) evokes a decrease in fluorescence. […] HEPES, 20; NaCl, 120; KCl, 2; CaC'2, 2; MgCl2, 1; glucose, 5; pH 7.4 at 25 ° C.) containing 5 µM DiBAC(4)3 and incubated with […] of the buffer in a cell incubator for 30 minutes at 37 OC to ensure dye distribution across the membrane. After recording the baseline fluorescence for 5 minutes, the reference or test compounds, prepared at 10 times the concentration in the assay buffer, were added directly to the wells. Changes in fluorescence were monitored for an additional 25 minutes. […] Pharmacol., v. 43 pp. 474-481 (1993)). Routinely, five concentrations of […] or test compounds (log or half-log dilutions) were evaluated and the maximal steady-state hyperpolarization values (expressed as % relative to […]) plotted as a function of concentration. […] The maximal response of each compound (expressed as % relative to […]) is reported.

potassium channels [4] = biological target: potassium channels (Rattus norvegicus, UniProt Q63563); experiment: Membrane hyperpolarization (MHP) assay in A10 cells, DiBAC(4)3 FLIPR; type: cell-based; settings: for EC50: concentration that elicits 50% of the maximal response for the test sample; for MHP in A10 Cells Maximal Response (% P1075): maximal steady-state hyperpolarization relative to reference P1075 (assigned as 100%)
Description: Determination of Potassium Channel Opening Activity Membrane Hyperpolarization Assays Compounds were evaluated for potassium channel opening activity using the rat thoracic aorta smooth muscle AI 0 cell line or primary cultured guinea-pig urinary bladder (GPB) cells.
The AI0 cell line was purchased from the American Type Culture Collection (Rockville, MD; Cat # 30-2002). Cells were grown in 96-well clear-bottomed black plates (Packard) in culture media (composition: Dulbecco′s modified Eagle′s medium supplemented with 20% Fetal Bovine Serum, 100 units/mL penicillin, 100 units/mL streptomycin and 0.25 […]) at 37 ° C. with 5% C02 in a humidified chamber to form a confluent monolayer. 25 For the preparation of urinary bladder smooth muscle cells, urinary bladders were removed from male guinea-pigs (Hartley, Charles River, Wilmington, MA) weighing 300-400 g and placed in ice-cold Ca^2+-free Krebs solution (Composition, mM: KCl, 2.7; KH2PO4, 1.5; NaCl, 75; Na2HPO4, 9.6; Na2HPO4.7H2O, 8; MgSO4, 2; glucose, 5;HEPES, 10; pH 7.4). Cells were isolated by enzymatic dissociation as previously escribed with minor modifications (Klockner, U. and Isenberg, G., Pflugers Arch. 1985, 05, 329-339). The bladder was cut into small sections and incubated in 5 mL of the reb′s solution containing I mg/mL collagenase (Sigma, St. Louis, MO) and 0.2 mg/mL ronase (Calbiochem, La Jolla, CA) with continuous stirring in a cell incubator for 30 minutes. […]
Functional activity at potassium channels was measured by evaluating changes in membrane potential using the bis-oxonol dye DiBAC(4)3 (Molecular Probes) in a 96-well cell-based kinetic assay system, Fluorescent Imaging Plate Reader (FLIPR) (K.S. Schroeder et al., J. Biomed. Screen., v. I pp. 75-81 (1996)). […] With increasing membrane potential (for example, K+depolarization), the probe further partitions into the cell; this is measured as an increase in fluorescence due to dye interaction with intracellular lipids and proteins.
Conyersely, decreasing membrane potential (hyperpolarization by potassium channel openers) evokes a decrease in fluorescence.
Confluent smooth muscle A10 or guinea-pig urinary bladder cells cultured in black clear-bottomed 96-well plates were rinsed twice with […] assay buffer (composition, mM: HEPES, 20; NaCl, 120; KCl, 2; CaC′2, 2; MgCl2, 1; glucose, 5; pH 7.4 at 25 ° C.) containing 5 µM DiBAC(4)3 and incubated with […] of the buffer in a cell incubator for 30 minutes at 37 OC to ensure dye distribution across the membrane. After recording the baseline fluorescence for 5 minutes, the reference or test compounds, prepared at 10 times the concentration in the assay buffer, were added directly to the wells. Changes in fluorescence were monitored for an additional 25 minutes. […]

[5] = maximal efficacy relative to P1075, field stimulation 0.05Hz, 0.5 milli-seconds at 20 volts

Chain of potassium channels (Rattus norvegicus, UniProt Q63563) (Q63563 whole entry): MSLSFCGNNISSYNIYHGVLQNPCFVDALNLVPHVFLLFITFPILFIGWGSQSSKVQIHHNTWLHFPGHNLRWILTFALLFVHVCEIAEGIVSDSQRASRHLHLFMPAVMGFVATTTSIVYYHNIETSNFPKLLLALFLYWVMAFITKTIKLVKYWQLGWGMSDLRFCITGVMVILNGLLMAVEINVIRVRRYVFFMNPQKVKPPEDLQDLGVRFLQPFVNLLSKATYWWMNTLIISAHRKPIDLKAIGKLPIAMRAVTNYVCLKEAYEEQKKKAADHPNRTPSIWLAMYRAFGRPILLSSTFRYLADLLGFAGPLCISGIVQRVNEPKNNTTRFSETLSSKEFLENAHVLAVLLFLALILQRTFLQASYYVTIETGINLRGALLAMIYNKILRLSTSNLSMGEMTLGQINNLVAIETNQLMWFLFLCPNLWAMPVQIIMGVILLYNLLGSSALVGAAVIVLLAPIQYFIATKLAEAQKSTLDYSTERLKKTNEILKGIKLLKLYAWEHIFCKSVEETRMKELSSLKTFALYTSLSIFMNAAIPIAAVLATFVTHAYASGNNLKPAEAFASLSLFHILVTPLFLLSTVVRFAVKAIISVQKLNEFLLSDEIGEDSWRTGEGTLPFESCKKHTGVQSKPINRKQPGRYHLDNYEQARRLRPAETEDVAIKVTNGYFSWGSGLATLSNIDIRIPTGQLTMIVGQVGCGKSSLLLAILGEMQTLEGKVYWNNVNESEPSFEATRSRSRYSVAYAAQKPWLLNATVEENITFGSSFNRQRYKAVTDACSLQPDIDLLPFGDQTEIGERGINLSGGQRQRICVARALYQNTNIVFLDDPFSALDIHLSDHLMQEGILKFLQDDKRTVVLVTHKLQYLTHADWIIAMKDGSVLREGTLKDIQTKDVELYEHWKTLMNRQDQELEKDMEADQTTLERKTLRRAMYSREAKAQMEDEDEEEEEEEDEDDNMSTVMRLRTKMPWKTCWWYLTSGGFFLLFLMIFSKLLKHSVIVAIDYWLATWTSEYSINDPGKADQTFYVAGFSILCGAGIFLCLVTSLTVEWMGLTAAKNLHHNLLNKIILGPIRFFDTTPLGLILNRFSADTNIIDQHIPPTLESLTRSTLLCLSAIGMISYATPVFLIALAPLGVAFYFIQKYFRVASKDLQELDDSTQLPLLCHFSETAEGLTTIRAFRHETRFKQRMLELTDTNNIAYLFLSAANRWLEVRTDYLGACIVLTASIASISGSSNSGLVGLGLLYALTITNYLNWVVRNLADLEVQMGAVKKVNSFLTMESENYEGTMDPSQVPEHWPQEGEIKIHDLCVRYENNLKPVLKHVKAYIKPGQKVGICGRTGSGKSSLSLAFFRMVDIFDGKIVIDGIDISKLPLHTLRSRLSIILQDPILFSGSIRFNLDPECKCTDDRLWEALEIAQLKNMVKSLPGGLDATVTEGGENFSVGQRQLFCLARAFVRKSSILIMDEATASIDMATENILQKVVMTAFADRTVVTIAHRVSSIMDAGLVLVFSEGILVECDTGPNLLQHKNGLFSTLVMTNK
Chain of potassium channels (Rattus norvegicus, UniProt Q63563) (Q63664 whole entry partner): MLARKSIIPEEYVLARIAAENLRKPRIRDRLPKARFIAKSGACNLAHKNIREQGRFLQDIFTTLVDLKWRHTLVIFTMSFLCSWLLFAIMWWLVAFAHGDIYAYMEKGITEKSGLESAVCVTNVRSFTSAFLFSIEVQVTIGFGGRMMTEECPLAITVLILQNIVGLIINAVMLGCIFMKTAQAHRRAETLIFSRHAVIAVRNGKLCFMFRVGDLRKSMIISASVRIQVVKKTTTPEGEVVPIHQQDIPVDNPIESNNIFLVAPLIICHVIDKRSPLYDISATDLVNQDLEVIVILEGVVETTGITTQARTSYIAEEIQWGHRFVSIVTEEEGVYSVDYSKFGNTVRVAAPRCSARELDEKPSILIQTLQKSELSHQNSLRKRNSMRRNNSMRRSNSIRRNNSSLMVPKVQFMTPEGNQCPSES
Chain of potassium channels (Cavia porcellus, UniProt A0A286XYR9) (A0A286XYR9 1-1546): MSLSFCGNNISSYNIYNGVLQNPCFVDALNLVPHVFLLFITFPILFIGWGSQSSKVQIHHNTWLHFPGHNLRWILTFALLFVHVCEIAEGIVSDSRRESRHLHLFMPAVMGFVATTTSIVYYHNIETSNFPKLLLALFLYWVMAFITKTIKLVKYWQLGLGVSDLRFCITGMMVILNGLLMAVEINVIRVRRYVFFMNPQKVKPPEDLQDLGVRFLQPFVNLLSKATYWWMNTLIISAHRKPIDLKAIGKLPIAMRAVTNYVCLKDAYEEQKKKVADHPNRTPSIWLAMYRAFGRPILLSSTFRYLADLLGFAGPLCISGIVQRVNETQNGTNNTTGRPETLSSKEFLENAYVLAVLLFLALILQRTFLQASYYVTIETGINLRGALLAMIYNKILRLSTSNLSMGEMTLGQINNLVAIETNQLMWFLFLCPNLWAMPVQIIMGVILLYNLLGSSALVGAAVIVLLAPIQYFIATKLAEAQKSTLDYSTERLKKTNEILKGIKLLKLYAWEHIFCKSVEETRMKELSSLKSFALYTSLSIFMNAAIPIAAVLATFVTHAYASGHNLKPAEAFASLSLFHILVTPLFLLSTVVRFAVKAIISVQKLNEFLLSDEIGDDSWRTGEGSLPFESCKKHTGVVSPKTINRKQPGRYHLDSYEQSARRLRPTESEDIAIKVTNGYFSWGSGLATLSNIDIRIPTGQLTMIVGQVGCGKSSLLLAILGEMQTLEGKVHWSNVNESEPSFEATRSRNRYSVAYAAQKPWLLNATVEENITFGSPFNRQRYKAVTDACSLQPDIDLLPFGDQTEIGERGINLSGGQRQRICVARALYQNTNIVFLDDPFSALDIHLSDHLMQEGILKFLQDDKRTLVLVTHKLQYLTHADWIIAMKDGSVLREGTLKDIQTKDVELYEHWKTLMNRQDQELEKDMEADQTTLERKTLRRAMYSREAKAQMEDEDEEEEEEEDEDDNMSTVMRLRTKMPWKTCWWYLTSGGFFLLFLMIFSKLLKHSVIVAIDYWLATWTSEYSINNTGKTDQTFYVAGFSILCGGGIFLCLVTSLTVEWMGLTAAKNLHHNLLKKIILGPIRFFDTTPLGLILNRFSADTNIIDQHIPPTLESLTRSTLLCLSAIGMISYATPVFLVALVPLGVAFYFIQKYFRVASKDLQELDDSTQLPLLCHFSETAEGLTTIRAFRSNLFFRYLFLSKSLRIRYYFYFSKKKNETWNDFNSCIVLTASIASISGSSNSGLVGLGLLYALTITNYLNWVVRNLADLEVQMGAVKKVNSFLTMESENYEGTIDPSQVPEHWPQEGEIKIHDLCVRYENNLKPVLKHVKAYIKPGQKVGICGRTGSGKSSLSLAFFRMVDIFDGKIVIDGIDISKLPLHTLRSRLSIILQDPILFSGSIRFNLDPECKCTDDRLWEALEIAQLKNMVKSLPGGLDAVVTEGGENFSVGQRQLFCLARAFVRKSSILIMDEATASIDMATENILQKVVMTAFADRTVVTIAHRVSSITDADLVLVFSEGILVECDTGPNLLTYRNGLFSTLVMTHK
Chain of potassium channels (Cavia porcellus, UniProt A0A286XYR9) (Q9JHJ9 whole entry partner): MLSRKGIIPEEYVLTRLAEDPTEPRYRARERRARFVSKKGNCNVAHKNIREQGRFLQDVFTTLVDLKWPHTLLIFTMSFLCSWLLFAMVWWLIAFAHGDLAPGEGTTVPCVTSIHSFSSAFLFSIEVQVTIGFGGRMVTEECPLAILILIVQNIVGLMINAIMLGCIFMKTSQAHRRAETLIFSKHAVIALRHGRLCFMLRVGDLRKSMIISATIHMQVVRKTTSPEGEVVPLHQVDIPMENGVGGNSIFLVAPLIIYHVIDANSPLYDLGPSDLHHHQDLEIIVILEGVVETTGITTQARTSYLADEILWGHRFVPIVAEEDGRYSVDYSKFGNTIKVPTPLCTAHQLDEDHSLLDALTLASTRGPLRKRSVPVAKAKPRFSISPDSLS

| relaxation of human detrusor strips (potassium channels [1]; control agonist, 25 mM KCl contracted) | Emax (potassium channels [1]; human, maximal efficacy relative to P1075, detrusor strips contracted with 25 mM KCl) | Landrace Pig Bladder Index (potassium channels [2]) | Landrace Pig Bladder pD2 (potassium channels [2]) | Emax (potassium channels [2]; pig, maximal efficacy relative to P1075, field stimulation 0.05Hz, 0.5 milli-seconds at 20 volts) | Landrace Pig Bladder Efficacy (% P1075) (potassium channels [2]; [5]) | MHP in GPB Cells Maximal Response (% P1075) (potassium channels [3]) | EC50 (potassium channels [4]) | MHP in A10 Cells Maximal Response (% P1075) (potassium channels [4]) | EC50 (potassium channels [3]) | SMILES | effect on stimulated twitch of pig bladder strips (potassium channels [2]; control agonist, concentration range of 10-9 to 10-′M, 1/2 log increments) | reduction in bladder AUC (Male CD rats; iv, dose range of 0.01, 0.1) | AUC ED30 (dose required to reduce the area under the curve of the bladder contractions by 30% relative to control) (Male CD rats; urethane-anesthetized male CD rats, iv cumulative dosing) |
| --- | --- | --- | --- | --- | --- | --- | --- | --- | --- | --- | --- | --- | --- |
| complete relaxation | – | – | – | – | – | – | – | – | – | CCC(C)(C)N=C(NC#N)Nc1cccnc1 [Example P1075, reference compound] | completely eliminated the stimulated twitch | – | – |
| – | 100% | 0.13 | 6.0 | 94% | – | – | – | – | – | O=C1CCCC2=C1C(c1ccc(Cl)c([N+](=O)[O-])c1)C1=C(CCCS1(=O)=O)N2 (centres unmarked) [Example 19, 10-(4-chloro-3-nitrolphenyl)-3,4,6,7,8,10-hexahydro-2H-thiopyrano [3,2-b]quinolin-9(5H)-one, 1,1-dioxide] | – | – | – |
| – | – | 0.90 | 7.5 | – | 100 % P1075 | – | – | – | – | O=C1CCC2=C1C(c1ccc(F)c(Br)c1)C1=C(CCS1(=O)=O)N2 (single isomer, unassigned; (+)) [Example 87] | – | dose dependent reduction in bladder AUC | 0.06 µmol/kg |
| – | – | 0.025 | 5.0 | – | 95 % P1075 | 100 % P1075 | 7.5 µM | 66 % P1075 | 2.5 µM | O=C1CCCC2=C1C(c1cccc(Br)c1)C1=C(CCCS1(=O)=O)N2 (centres unmarked) [Example 8, 10-(3-bromophenyl)-3,4,6,7,8,10-hexahydro-2H-thiopyrano [3,2-b]quinolin-9(5H)-one, 1,1-dioxide] | – | – | – |
| – | – | 0.0021 | 4.1 | – | 100 % P1075 | 29 % P1075 | 11 µM | 42 % P1075 | 20 µM | O=C1CCCC2=C1C(c1cccc(F)c1)C1=C(CCCS1(=O)=O)N2 (centres unmarked) [Example 11, 10-(3-fluorophenyl)-3,4,6,7,8,10-hexahydro-2H-thionyrano [3,2-b]quinolin-9(5H)-one, 1,1-dioxide] | – | – | – |

| SMILES | relaxation of human detrusor strips (potassium channels [1]; control agonist, 25 mM KCl contracted) | Emax (potassium channels [1]; human, maximal efficacy relative to P1075, detrusor strips contracted with 25 mM KCl) | Landrace Pig Bladder Index (potassium channels [2]) | Landrace Pig Bladder pD2 (potassium channels [2]) | Emax (potassium channels [2]; pig, maximal efficacy relative to P1075, field stimulation 0.05Hz, 0.5 milli-seconds at 20 volts) | Landrace Pig Bladder Efficacy (% P1075) (potassium channels [2]; [5]) | MHP in GPB Cells Maximal Response (% P1075) (potassium channels [3]) | EC50 (potassium channels [4]) | MHP in A10 Cells Maximal Response (% P1075) (potassium channels [4]) | EC50 (potassium channels [3]) | effect on stimulated twitch of pig bladder strips (potassium channels [2]; control agonist, concentration range of 10-9 to 10-′M, 1/2 log increments) | reduction in bladder AUC (Male CD rats; iv, dose range of 0.01, 0.1) | AUC ED30 (dose required to reduce the area under the curve of the bladder contractions by 30% relative to control) (Male CD rats; urethane-anesthetized male CD rats, iv cumulative dosing) |
| --- | --- | --- | --- | --- | --- | --- | --- | --- | --- | --- | --- | --- | --- |
| O=S1(=O)CCCC2=C1C(c1ccc(F)c(Br)c1)C1=C(CCCS1(=O)=O)N2 [Example 54, 10-(3-bromo-4-fluorophenyl)-3,4,6,7,8,10-hexahydro-2H,5H-dithiopyrano [3,2-b:2′,3′-e]pyridine, 1,1,9,9-tetraoxide] | – | – | 0.015 | 4.9 | – | 89 % P1075 | 107 % P1075 and 133 % P1075 | – | – | – | – | – | – |
